# Source: ChEMBL document CHEMBL1154026, “FXR agonist activity of conformationally constrained analogs of GW 4064” (Bioorg Med Chem Lett, 2009)
# Tests used:
# Bile acid receptor [1] = molecular target: T1, Bile acid receptor (Homo sapiens, UniProt Q96RI1); assay: Induction of SRC1 coactivator peptide binding to ligand binding domain of human FXR by FRET assay
# T1 sequence (Q96RI1 whole entry): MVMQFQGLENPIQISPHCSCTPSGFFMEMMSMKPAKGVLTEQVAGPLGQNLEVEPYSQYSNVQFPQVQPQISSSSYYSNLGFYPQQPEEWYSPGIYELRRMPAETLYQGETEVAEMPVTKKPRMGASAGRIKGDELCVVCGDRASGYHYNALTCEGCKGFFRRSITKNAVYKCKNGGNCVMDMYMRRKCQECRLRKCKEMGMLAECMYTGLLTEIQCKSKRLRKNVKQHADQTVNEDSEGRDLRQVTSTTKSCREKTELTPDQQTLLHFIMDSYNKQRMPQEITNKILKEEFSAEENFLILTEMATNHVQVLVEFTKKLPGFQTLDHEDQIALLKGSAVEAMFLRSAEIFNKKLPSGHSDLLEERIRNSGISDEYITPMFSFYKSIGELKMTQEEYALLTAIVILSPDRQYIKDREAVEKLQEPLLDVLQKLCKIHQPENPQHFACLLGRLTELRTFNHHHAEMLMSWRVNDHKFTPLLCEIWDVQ
# Bile acid receptor [2] = molecular target: T1, Bile acid receptor; assay: Increase in human FXR-mediated transient transcription of luciferase reporter gene transfected in african green monkey CV1 cells; assay type: cell-based, CV-1
# [3] = molecular target: T2, Bile acid receptor (Homo sapiens) (UniProt Q96RI1); assay: Increase in human FXR-mediated transient transcription of luciferase reporter gene transfected in african green monkey CV1 cells relative to GW-4064; assay type: cell-based; design: concentration or dose not given beside the values; conditions: CV-1
# T2 sequence (whole entry): T1 sequence (Q96RI1 whole entry)
# [4] = molecular target: T2, Bile acid receptor (Homo sapiens); assay: Induction of SRC1 coactivator peptide binding to ligand binding domain of human FXR by FRET assay relative to GW-4064; design: concentration or dose not given beside the values
# [5] = Oral bioavailability in rat at 5 mg/kg; assay type: ADME, organism-based; conditions: in vivo
# [6] = Total clearance in rat at 1 mg/kg, iv; assay type: ADME, organism-based; design: dose 1 mg/kg, route intravenous; conditions: in vivo
# [7] = Volume of distribution at steady state in rat at 1 mg/kg, iv; assay type: ADME, organism-based; design: dose 1 mg/kg, route intravenous; conditions: in vivo, read-out: Vdss
# [8] = Terminal half life in rat at 1 mg/kg, iv; assay type: ADME, organism-based; design: dose 1 mg/kg, route intravenous; conditions: in vivo, read-out: beta t1/2
EC50 (Bile acid receptor [1]),EC50 (Bile acid receptor [2]),Activity [3],Activity [4],bioavailability [5],clearance [6],Vd [7],half-life [8],SMILES
710 nM,8300 nM,112%,52%,,,,,CC(C)c1onc(-c2c(Cl)cccc2Cl)c1COc1ccc2c(c1)CCN(c1cccc(C(=O)O)c1)C2=O
410 nM,410 nM,86%,72%,,,,,CC(C)c1onc(-c2c(Cl)cccc2Cl)c1COc1ccc2nc(-c3cccc(C(=O)O)c3)sc2c1
320 nM,210 nM,84%,80%,12%,6.7 mL/min/kg,0.07 L/kg,45 min,CC(C)c1onc(-c2c(Cl)cccc2Cl)c1COc1ccc2c(ccn2Cc2cccc(C(=O)O)c2)c1
1500 nM,> 10000 nM,,25%,,,,,CC(C)c1onc(-c2c(Cl)cccc2Cl)c1COc1ccc2[nH]cc(Cc3cccc(C(=O)O)c3)c2c1
200 nM,220 nM,79%,95%,,,,,CC(C)c1onc(-c2c(Cl)cccc2Cl)c1COc1ccc2cc(-c3ccc(C(=O)O)cc3)sc2c1
280 nM,160 nM,89%,80%,,,,,CC(C)c1onc(-c2c(Cl)cccc2Cl)c1COc1ccc2sc(-c3ccc(C(=O)O)cc3)cc2c1
1200 nM,710 nM,75%,41%,,,,,CC(C)c1onc(-c2c(Cl)cccc2Cl)c1CCc1nc2cc(-c3cccc(C(=O)O)c3)ccc2o1
960 nM,380 nM,123%,91%,,,,,CC(C)c1onc(-c2c(Cl)cccc2Cl)c1CNc1nc2ccc(-c3cccc(C(=O)O)c3)cc2s1
1100 nM,> 10000 nM,,75%,,,,,CC(C)c1onc(-c2c(Cl)cccc2Cl)c1COc1ccc2c(c1)CC(=O)N(c1cccc(C(=O)O)c1)C2
110 nM,130 nM,103%,88%,,,,,CC(C)c1onc(-c2c(Cl)cccc2Cl)c1COc1ccc2cc(-c3cccc(C(=O)O)c3)ccc2c1
440 nM,980 nM,170%,68%,,,,,CC(C)c1onc(-c2c(Cl)cccc2Cl)c1COc1ccc2cc(-c3ccc(C(=O)O)cc3)ccc2c1
480 nM,630 nM,103%,81%,,,,,CC(C)c1onc(-c2c(Cl)cccc2Cl)c1COc1ccc2[nH]c(-c3cccc(C(=O)O)c3)cc2c1
140 nM,63 nM,93%,92%,,,,,CC(C)c1onc(-c2c(Cl)cccc2Cl)c1COc1ccc2cc(-c3cccc(C(=O)O)c3)sc2c1
590 nM,930 nM,32%,81%,,,,,CC(C)c1onc(-c2c(Cl)cccc2Cl)c1COc1ccc2c(Cc3cccc(C(=O)O)c3)c[nH]c2c1
160 nM,330 nM,79%,80%,,,,,CC(C)c1onc(-c2c(Cl)cccc2Cl)c1COc1ccc2c(ccn2Cc2ccc(C(=O)O)cc2)c1
320 nM,81 nM,57%,95%,,,,,CC(C)c1onc(-c2c(Cl)cccc2Cl)c1COc1ccc2c(Nc3cccc(C(=O)O)c3)cccc2c1
150 nM,860 nM,63%,68%,,,,,CC(C)c1onc(-c2c(Cl)cccc2Cl)c1COc1ccc2c(ccn2C(=O)c2cccc(C(=O)O)c2)c1
670 nM,1100 nM,61%,59%,,,,,CC(C)c1onc(-c2c(Cl)cccc2Cl)c1COc1ccc2c(c1)CN(c1cccc(C(=O)O)c1)C2=O
55 nM,32 nM,87%,90%,8.5%,66 mL/min/kg,0.72 L/kg,15 min,CC(C)c1onc(-c2c(Cl)cccc2Cl)c1COc1ccc2sc(-c3cccc(C(=O)O)c3)cc2c1
1700 nM,> 10000 nM,,19%,,,,,CC(C)c1onc(-c2c(Cl)cccc2Cl)c1CCc1nc2cccc(Nc3cccc(C(=O)O)c3)c2o1
1400 nM,5000 nM,40%,38%,26%,4.4 mL/min/kg,0.085 L/kg,31 min,CC(C)c1onc(-c2c(Cl)cccc2Cl)c1COc1ccc2c(c1)ncn2Cc1cccc(C(=O)O)c1
160 nM,1300 nM,63%,87%,,,,,CC(C)c1onc(-c2c(Cl)cccc2Cl)c1COc1ccc2c(ccn2S(=O)(=O)c2cccc(C(=O)O)c2)c1
